pIC50: −log10 of the molar value.
System: muscle cells
Experiment: Cell proliferation ELISA, BrdU incorporation into DNA (inhibition of DNA synthesis)
Format: cell-based
Settings: stents loaded with dipyramidole
Excerpt: Incorporation of BrdU instead of thymidine into the DNA, measurement with anti-BrdU-POD antibody (Cell proliferation ELISA, BrdU; obtained from Roche Diagnostics, Mannheim, Germany)
The following results have been obtained using this test with the stents loaded with dipyramidole according to the present invention: […]

Molecule `OCCN(CCO)c1nc(N2CCCCC2)c2nc(N(CCO)CCO)nc(N3CCCCC3)c2n1` [dipyridamole, 2,6-bis(diethanolamino)-4,8-dipiperidino-pyrimido[5,4-d]pyrimidine] has a pIC50 (muscle cells stimulated with PDGF-BB) of 6.52 to 7.00, a pIC50 (muscle cells without stimulation) of 5.52 to 6.00 and a pIC50 (with freshly prepared medium) of 5.00 to 5.40.
